We go through 25 compounds from US5723494A, “Derivatives of glutamic and aspartic acids, a method of preparing them, and their use as drugs for enhancing memory and learning” (priority 1993, dated 1998).

Experiment [1] concerns the target excitor amino-acid receptors of cortical membranes ("forebrain") of rats. Description: Inhibition of the specific binding of [3H]-glutamate to rat forebrain membranes. The conditions noted are these: rat forebrain membranes, 20 min, 37° C., pH 7.1. An excerpt: 6) Studies on binding to rat "forebrain" membranes
L-glutamate recognizes all three receptor subtypes indicated above, al though not selectively. It is therefore desirable to evaluate the capacity of each of the compounds of the invention to interact with the excitor amino-acid receptors of the CNS.
"Forebrain", that is, the cerebral cortex and the hippocampus, were selected as the receptor tissue and ^3 H-L-glutamate as the ligand for marking this heterogenous receptor population.
Rat cerebral tissue (forebrain without striated tissue) was therefore homogeneised cold in tris buffer at pH 7.4. After washing and centrifuging, the final pellet was resuspended in 50 volumes of tris HCl binding buffer at 7.1. 0.5 ml of receptor membrane thus obtained were then incubated, together with the radioactive tracer and the compounds under test, for 20 min at 37° C. The reaction was terminated by separating the bound radio-ligand from the free radio-ligand by filteration on glass-fibre filters which, after washing, were counted in a liquid scintillator (a β-counter) thus determining the radioactivity associated with the pellet. The specific binding was determined as the difference between the binding in the absence and in the presence of cold 3.6 mM L-glutamate.

Experiment [2] in a line: Antiamnesic activity in the mouse (step-down passive avoidance, amnesia induced by ECS). Type of experiment: in vivo, mouse (CD1 male). The conditions noted are these: mouse; for change in vivo at 0.1 mg/kg: 0.1 mg/kg OS; for change in vivo at 1 mg/kg: 1 mg/kg OS; for change in vivo at 10 mg/kg: 10 mg/kg OS; for change in vivo at 3 mg/kg: 3 mg/kg OS. The text has this: 1) Antiamnesic activity in the mouse (step-down passive avoidance)
An electroconvulsive shock (ECS) produces retrograde amnesia in the test animal if applied immediately after the training received, for example, a harmful stimulus of a suitable intensity.
The object of the experiment was to study the effects of the compounds of the invention in antagonizing the amnesic effect of an ECS on the short-term memory consolidation process.
CD1 male mice which weighed about 30-35 g, and had not fasted were used. The equipment used was a rectangular plexiglass cage (21×21×40cm) with an electrifiable grid floor and a wooden cube (4×4×4 cm) fixed in the centre of the cage. The animals were treated orally with the product under test 60 minutes before the training.
The mouse was placed delicately on the wooden cube and the time it took to descend to the grid floor (SDL=step-down latency) was measured. When all four of the animal's paws were resting on the floor the continuous 0.2 mA shock started and the time taken by The mouse to remount the wooden cube (EL=escape latency) was measured.
The animals with an SDL of between 3 and 30 sec and with an EL of between 3 and 60 sec were used for retesting.
Immediately afterwards, a transcorneal ECS was applied with the use of the following parameters: amperage 15 mA, frequency 50 Hz, duration of the train of pulses 0.4 sec. duration of each individual pulse 1 msec., interval between pulses 20 msec. As well as the groups treated with ECS, a control group without ECS and a control group with ECS were used.
The retest was carried out after 24 h.
The results are expressed as the percentage variation of the SDL of the treated groups in comparison with the control group by means of this formula: [formula]

Experiment [3] is described as follows: Memory-enhancement activity in the passive avoidance test in the rat. The conditions noted are these: rat, retest on the 4th day. Type of experiment: in vivo, rat (male Wistar). How it is done:
2) Memory-enhancement activity in the "passive avoidance" test in the rat
A "passive avoidance" model was used, which required a single "step-through" situation and a retest of the "retention memory" 72 h after the training.
Male Wistar rats which weighed about 200 g and had not fasted, were used. The test consisted of evaluating the degree of memory of an animal after it had been trained as follows.
The equipment used was a shuttle box modified thus: one compartment was lined with black card including the cover, and a 60 W lamp was disposed above the other, spaced from the grid floor by about 40 cm. The two compartments were divided by an automatic guillotine-like door. Each animal was placed in the compartment in the light with the guillotine-likedoor open. From this moment, the time taken by the rat to go into the compartment lined with black card (the dark compartment) (the step-throughlatency=STL) was measured. The animals which took more than 30 sec to go into the dark were discarded. Once they had gone into the dark, the door was lowered automatically and a=0.1 mA shock lasting 5 sec (a foot shock=FS) started. After 10 sec, the animal was removed from the shuttle box.
Upon completion, the animals were selected randomly in homogeneous groups and treated with the products.
The retest to determine memory was made after 72 hours. The products were administered chronically in the preselected manner twice per day and the last treatment 30 min before the retest (6 treatments altogether).
The memory-retention test (the retest) consisted of placing each animal, treated 30 min beforehand with a physiological solution or with the product, in the compartment which was not lined with black card for 30 sec.
The results are expressed as the percentage variation of the STL (in seconds) of the groups treated in comparison with the control group by means of this formula: [formula]

Experiment [4] in a line: Antidepressant activity in the behavioural despair test in the mouse. Format: in vivo, mouse (male CD1). An excerpt:
5) Antidepressant activity in the "behavioural despair test" Another interesting aspect of the pharmacological activity of these products is the potent antidepressant activity which some of them display in an experimental model in the mouse, in which a state of depression is induced experimentally by the method of Porsolt et al. (Arch. Int. Pharmacodyn. 229, p. 327-336 (1977)). Male CDl mice which weighed about 20-25 g and had not fasted were used. The test consisted of inducing a state of depression in the animal which was subjected to forced swimming in a glass cylinder from which it could not escape. After a short period of vigorous activity the mouse adopted a characteristic posture of immobility which was easily identifiable; this immobility is reduced by antidepressant drugs. 1 l glass beakers, filled to 700 ml with water at a temperature of 25° C. were used for the test. The mice, 8 per group, were treated intraperitoneally with the drug under test, 30 minutes before the test. At time 0, each animal was immersed in a beaker and, after one minute during which all moved about swimming vigorously in order to escape, regardless of treatment, the observer, who was unaware of the treatment, assigned the following points: 0=animal immobile 1=minimum movement to remain afloat 2=vigorous swimming The greater the antidepressant activity of the drug, the more the animals will move about in order to try to escape from the water. The points were assigned every 15 sec for a total period of 5 min with a total of 20 observations. The antidepressant activity was determined with the use of various doses of the compound by the regression method as the ED50, that is, the dose in mg/kg of the compound which could antagonise the animal's immobility time by 50%.

The mark [5] stands for this setting: po, retest 24 h after training, read-out: Reversal of the amnesia (% vs controls), as the increase in the Step Down Latency.

Each structure is given as a SMILES string.

`CCCCC(CC)CCNC(=O)[C@@H](N)CCC(=O)O` (stereo partly shown) [Compound 8]: in experiment [1], the 50% inhibitory concentration (IC50) (usually the midpoint of a concentration-inhibition curve) turned out to be 56.4 µM. Still for that read-out and setting: with `CCCCCN(CCCCC)C(=O)[C@@H](N)CC(=O)O` [Compound 41] the figure was 136 µM. On the same count and under the same terms, with `CC(C)(C)CCNC(=O)[C@H](N)CCC(=O)O` [Compound 6] the figure was over 1000 µM; with `CN[C@@H](CCC(=O)O)C(=O)NC1CCC(C)(C)CC1` [Compound 39, 1-(4,4-dimethylcyclohexyl)-N-methyl-L-isoglutamine], 18.8 µM. On to `N[C@@H](CCC(=O)O)C(=O)N1CCC2(CCCCC2)CC1` [Compound 32], for which the change in vivo at 0.1 mg/kg in experiment [2] (setting [5]) amounted to 7%; in experiment [3] (96 h, 0.1 mg/kg IP, 6 treatments, read-out: % variation vs controls (FS) in step through latency) it was 0%. The change in vivo at 1 mg/kg was determined as 17% in experiment [2] (setting [5]) and 14% in experiment [3] (96 h, 1 mg/kg IP, 6 treatments, read-out: % variation vs controls (FS) in step through latency). Moreover, the change in vivo at 10 mg/kg came out at 10% in experiment [2] (setting [5]) and 15% in experiment [3] (96 h, 10 mg/kg IP, 6 treatments, read-out: % variation vs controls (FS) in step through latency). With `N[C@@H](CCC(=O)O)C(=O)NC1CC2CCC1C2` (stereo partly shown) [Compound 10], in experiment [2] (setting [5]), the change in vivo at 0.1 mg/kg was 0%, the change in vivo at 1 mg/kg was 26% and the change in vivo at 3 mg/kg amounted to 23%. For the same compound, the IC50 in experiment [1] is 16 µM.

For `N[C@@H](CCC(=O)O)C(=O)NC1CCCC1` [Compound 18], the IC50 in experiment [1] worked out at 21.2 µM.

With `N[C@@H](CCC(=O)O)C(=O)N1CCOCC1` [Compound 35], in experiment [1], the half-maximal inhibitory concentration (IC50) was determined as 29.2 µM. Still for that read-out and setting: with `C[C@@H](NC(=O)[C@@H](N)CCC(=O)O)C1CCCCC1` [Compound 13] the figure was 54 µM; with `CCCCCCNC(=O)[C@@H](N)CCC(=O)O` [Compound 3], 70 µM. On the same count and under the same terms, with `CCCCNC(=O)[C@@H](N)CCC(=O)O` [Compound 1] the figure was 72 µM; with `CC1(C)CCC(NC(=O)CC[C@@H](N)C(=O)O)CC1` [Compound 49], over 1000 µM; with `CC1(C)CCC(NC(=O)C[C@H](N)C(=O)O)CC1` [Compound 50, 1-(4,4-dimethylcyclohexyl)-L-(β)-asparagine], 101 µM. As for `NC(=O)CN1CCCC1=O` [Piracetam, reference compound], the “Activity in increasing the avoidance time (in words)” value in experiment [3] (IP) is “inactive”.

For `C[C@H](NC(=O)[C@@H](N)CCC(=O)O)C1CCCCC1` [Compound 12], in experiment [1], the half-inhibitory concentration (IC50) was found to be 169 µM. Same read-out and setting: to `N[C@@H](CCC(=O)O)C(=O)NC1CCCCCCCCC1` [Compound 22] belongs 64 µM. The same measure, in the same setting: to `N[C@@H](CC(=O)O)C(=O)O` [L-aspartic acid, reference compound] belongs 30 µM.

Compound `N[C@H](CCC(=O)O)C(=O)O` [D-glutamic acid, reference compound] showed an IC50 in experiment [1] of 1040 µM. As for `CN1CCN(C(=O)[C@@H](N)CCC(=O)O)CC1` [Compound 36], the “Antiamnesic activity (in words)” value in experiment [2] (OS) is reported as “particularly remarkable”. In experiment [2] (po, 0.3 mg/kg OS, retest 24 h after training, read-out: Reversal of the amnesia (% vs controls), as the increase in the Step Down Latency), the change in vivo at 0.3 mg/kg is 12%. In experiment [2] (setting [5]), the change in vivo at 1 mg/kg came out at 10%, the change in vivo at 3 mg/kg was 29% and the change in vivo at 10 mg/kg is 53%. For the same compound, the ED50 in experiment [2] (po, OS, 60 min before training, read-out: ID50 (antiamnesic activity, dose inhibiting the amnesic effect of the ECS by 50%)) turned out to be 12.4 mg/kg. `CC1(C)CCC(NC(=O)[C@@H](N)CC(=O)O)CC1` [Compound 44] registered a concentration for half-maximal inhibition (IC50) in experiment [1] of 38.6 µM. Turning to `CCCCCN(CCCCC)C(=O)[C@@H](N)CCC(=O)O` [Compound 28], in experiment [2] (setting [5]), the change in vivo at 0.1 mg/kg is 0%, the change in vivo at 1 mg/kg stood at 0% and the change in vivo at 10 mg/kg stood at 8%. On to `CCCN(CCC)C(=O)[C@@H](N)CCC(=O)O` [Compound 27], for which, in experiment [1], the 50% inhibitory concentration (IC50) was 970 µM. The same measure, in the same setting: with `N[C@@H](CCC(=O)O)C(=O)N1CCCCCCC1` [Compound 34] the figure was 166 µM.

On to `CN(C)CCC=C1c2ccccc2CCc2ccccc21` [Amitriptyline, reference compound], for which the inhibition in vivo at 1 mg/kg in experiment [4] (5 min, 1 mg/kg IP, 5 minutes, read-out: Decrease in immobility (as %) vs the controls) came out at 19%. For the same compound, the inhibition in vivo at 3 mg/kg in experiment [4] (5 min, 3 mg/kg IP, 5 minutes, read-out: Decrease in immobility (as %) vs the controls) stood at 20%. The inhibition in vivo at 10 mg/kg in experiment [4] (5 min, 10 mg/kg IP, 5 minutes, read-out: Decrease in immobility (as %) vs the controls) worked out at 88%. Moreover, the ED50 in experiment [4] (IP, read-out: ED50 (dose antagonising immobility time by 50%)) is 4.1 mg/kg. On to `NC(=O)CC[C@H](N)C(=O)O` [L-glutamine, reference compound], for which the “Antiamnesic activity (in words)” value in experiment [2] (OS) is “inactive”. For the same compound, in experiment [2] (setting [5]), the change in vivo at 1 mg/kg came out at 0% and the change in vivo at 10 mg/kg turned out to be 10%. The change in vivo at 100 mg/kg in experiment [2] (po, 100 mg/kg OS (footnote), retest 24 h after training, read-out: Reversal of the amnesia (% vs controls), as the increase in the Step Down Latency) worked out at 12%.
